Holding throughout (assay type): tissue-based
Experiment [1] has as its target T1, 5-hydroxytryptamine receptor 1A (Rattus norvegicus, UniProt P19327).
T1 sequence (P19327 whole entry): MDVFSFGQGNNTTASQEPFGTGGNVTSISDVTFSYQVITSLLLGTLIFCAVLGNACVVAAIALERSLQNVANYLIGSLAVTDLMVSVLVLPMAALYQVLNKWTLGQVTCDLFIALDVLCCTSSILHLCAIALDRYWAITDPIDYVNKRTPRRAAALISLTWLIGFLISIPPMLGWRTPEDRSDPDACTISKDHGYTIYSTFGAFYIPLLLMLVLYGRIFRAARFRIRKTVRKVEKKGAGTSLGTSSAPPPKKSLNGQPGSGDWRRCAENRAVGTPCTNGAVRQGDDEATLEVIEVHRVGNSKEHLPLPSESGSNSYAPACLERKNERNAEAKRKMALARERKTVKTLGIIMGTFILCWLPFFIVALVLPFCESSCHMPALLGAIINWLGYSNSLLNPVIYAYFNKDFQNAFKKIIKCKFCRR
Briefly: Displacement of [3H]8-OH-DPAT from 5HT1A receptor in Rattus norvegicus (rat) cerebral cortex after 15 min by filter binding assay. For orientation: Loss of bound radioactivity is the signal in a displacement assay; it reports binding, not function.

In experiment [2] the target is 5-hydroxytryptamine receptor 2A (Rattus norvegicus, UniProt P14842). Kind of experiment: Displacement of [3H]Ketanserin from 5HT2A receptor in Rattus norvegicus (rat) cerebral cortex by filter binding assay.
Experiment [3] concerns the target Beta-1 adrenergic receptor (Rattus norvegicus, UniProt P18090). Briefly: Displacement of [3H]CGP12177 from beta1 adrenoreceptor in Rattus norvegicus (rat) cerebral cortex by liquid scintillation counting.

This is an account of results in ChEMBL document CHEMBL3046010, “Synthesis and pharmacological evaluation of 4-[2-hydroxy-3-(4-phenyl-piperazin-1-yl)-propoxy]-4-azatricyclo[5.2.1.02,6]dec-8-ene-3,5-dione” (Med Chem Res, 2008).

Sequence of Beta-1 adrenergic receptor (P18090 whole entry): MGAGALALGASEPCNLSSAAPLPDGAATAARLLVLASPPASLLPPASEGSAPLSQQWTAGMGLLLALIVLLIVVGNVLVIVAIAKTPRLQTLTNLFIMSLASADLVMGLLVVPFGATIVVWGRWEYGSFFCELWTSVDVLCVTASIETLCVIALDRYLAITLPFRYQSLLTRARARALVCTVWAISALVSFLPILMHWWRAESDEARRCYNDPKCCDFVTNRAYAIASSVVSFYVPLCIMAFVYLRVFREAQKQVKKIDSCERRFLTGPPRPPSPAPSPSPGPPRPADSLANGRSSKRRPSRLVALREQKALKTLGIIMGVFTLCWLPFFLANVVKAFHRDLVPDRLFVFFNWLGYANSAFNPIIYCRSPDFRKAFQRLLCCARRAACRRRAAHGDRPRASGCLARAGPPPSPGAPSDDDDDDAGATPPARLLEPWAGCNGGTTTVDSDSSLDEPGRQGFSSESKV
Sequence of 5-hydroxytryptamine receptor 2A (P14842 whole entry): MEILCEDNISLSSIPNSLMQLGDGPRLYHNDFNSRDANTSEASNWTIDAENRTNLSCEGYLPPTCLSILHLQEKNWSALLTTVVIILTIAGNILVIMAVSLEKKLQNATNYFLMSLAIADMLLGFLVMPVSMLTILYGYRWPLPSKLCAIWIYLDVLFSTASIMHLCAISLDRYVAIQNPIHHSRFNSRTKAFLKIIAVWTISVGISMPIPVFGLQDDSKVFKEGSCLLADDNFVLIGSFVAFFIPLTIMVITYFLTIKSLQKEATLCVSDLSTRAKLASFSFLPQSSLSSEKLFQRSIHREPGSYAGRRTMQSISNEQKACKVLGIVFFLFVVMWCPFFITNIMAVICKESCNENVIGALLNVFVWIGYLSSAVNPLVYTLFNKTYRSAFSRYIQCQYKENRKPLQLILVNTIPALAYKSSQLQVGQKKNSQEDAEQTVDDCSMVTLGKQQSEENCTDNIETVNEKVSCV

As to `O=C1C2C3C=CC(C3)C2C(=O)N1OCC(O)CN1CCN(c2ccccc2)CC1` (stereo not drawn), the inhibition constant (Ki) (in general, the dissociation constant of the complex between target and ligand, obtained from inhibition or displacement) in experiment [1] is 370 nM; in experiment [2] it was 336 nM; in experiment [3] it was 38500 nM.
